Laboratory results as given in patent US12508280B2, “Formulations for improving gut health” (DSM IP ASSETS B.V., priority 2018, dated 2025).

Assays:
[1] = test system: ileal microbiota; assay: Broiler feeding trial, ileal microbiota 16S rRNA sequencing; format: in vivo, chickens; settings: Groups B and C; T2 and T3, significant for T2 only, P<0.0001
Text: (§1) Each group was sampled three times (i.e., S1=14 days, S2=28 days, S3=38/42 days) in specific days corresponding to when the feed will be changed along the feeding program.
(§2) During each sampling (i.e., S1, S2 and S3) a total of 40 birds/group were humanely euthanized and 9 litter samples will be collected (i.e., 3 samples/group).
(§3) 16S rRNA gene PCR amplification and sequencing. The V3-V4 hypervariable region of the 16S rRNA gene was PCR-amplified using 341F and 785R primers with Illumina overhang adaptors sequences. Amplicons purification was performed by using AMPure XP Beads magnetic beads (Beckman Coulter, Brea, CA). For the indexed library preparation, the Nextera XT DNA Library Prep Kit (Illumina, San Diego, CA) was used. A further magnetic beads purification step was performed and libraries quantified using the Qubit 3.0 fluorimeter (Invitrogen), then pooled at 4 nM. The library pool was denatured with NaOH 0.2 N and diluted to 6 μM. […]
(§4) Bioinformatics and statistics. […] After chimera sequences removal, high-quality reads were filtered and binned into high-resolution operational taxonomic units (OTUs) according to the taxonomic threshold of 99% through an open-reference strategy performed with dada2 (Callahan et al, 2016). […] Alpha diversity was measured using Faith PD index and number of observed OTUs. […]

[2] = test system: litter microbiota; assay: Broiler feeding trial, litter microbiota; format: in vivo, chickens; settings: groups A, B, C
Text: as §1, §2, §3, §4

[3] = test system: Pepsin, pancreatin, viscozyme; assay: In vitro enzymatic digestion with exogenous enzymes; format: biochemical
Method: Erlenmeyer flasks (100 mL total volume) contained 0.5 g of substrate alone or supplemented with the three eubiotics were incubated in duplicates for each treatment, to determine the in vitro enzymatic digestibility following the three-step method of Boisen and Fernandez (1997). The digestibility was determined with: • [1] Pepsin • [2] Pepsin+pancreatin • [3] Pepsin+pancreatin+viscozyme B. With Gastric Contents and Small Intestine Contents
For gas production, results were analyzed for each incubation time as a split-plot design, considering the donor pig as a block, the contents (fresh vs. frozen) as the main plot and the treatment as the subplot. The same design was used to analyze the results obtained from digestive contents (gastric vs. small intestine) as the main plot. In vitro enzymatic results were not statistically analyzed as there were no sources of experimental variability. Differences were considered significant when P<0.05, and a trend for significance was considered when 0.05 ? P<0.10 and, when significant, differences were compared by the Tukey t test at P<0.05.

[4] = test system: caecal contents; assay: In vitro gas production with caecal contents; format: cell-based, pigs
Method: After 30 days of adaptation, animals were slaughtered. […] Regarding the caecal contents, one part was immediately sampled, dispensed in 20 ml tubes, frozen in liquid nitrogen and stored at −80° C. to use as frozen inoculum for in vitro gas production studies. The other part was directly used as fresh fermentation inoculum.
The microbial fermentation pattern of caecal contents was studied in vitro by the gas production technique (Theodorou et al., 1994. Anim Feed Sci Technol 48:185-1-97). […] Firstly, triplicate glass bottles (110 mL total volume) for each treatment were filled with 56 mL incubation solution. Caecal contents of each of the 3 pigs for each treatment were mixed 2:1 with the incubation solution under CO2 atmosphere and homogenized for few minutes with waring blender (ceacal contents implies a 0.20 of total incubation solution). Then, 24 mL of the mixture were added to each bottle to complete the 80 mL total liquid volume. In addition, triplicate bottles without substrate were also included as blanks. Bottles were sealed under a CO2 stream and incubated at 39° C. for 12 h. Pressure was recorded every two hours throughout the incubation period, by means of an HD 2124.02 manometer fitted with a TP804 pressure gauge (Delta Ohm, Caselle di Selvazzano, Italy). Readings were converted into volume by a pre-established linear regression equation between the pressure recorded in the same bottles under the same conditions and known air volumes (n=103; R2=0.996). The gas volume recorded for each incubation time was expressed per unit of incubated organic matter (OM). Methane (CH4) concentration was measured on every 6 h interval. At 6 and 12 h incubation samples were collected and either acidified 1:1 with 0.1N HCl or added to 0.5 ml of a deproteinizing mixture of 0.5 M PO4H3 with 2 mg/ml 4-methyl valeric acid, that were stored at −20° C. for determination of ammonia and volatile fatty acid (VFA) concentration, respectively. Note that the procedure of the in vitro gas production was the same for both fresh inocula and frozen inocula, with the only difference that the frozen samples of caecal contents were previously maintained at 38° C. for 5 min for thawing.
For gas production, results were analyzed for each incubation time as a split-plot design, considering the donor pig as a block, the contents (fresh vs. frozen) as the main plot and the treatment as the subplot. […] Differences were considered significant when P<0.05, and a trend for significance was considered when 0.05 ? P<0.10 and, when significant, differences were compared by the Tukey t test at P<0.05.

[5] = test system: Co-cultures of Caco-2 and HT29-MTX-E12 cells; assay: Barrier integrity (TEER), healthy gut model; format: cell-based; settings: 48 h minus 0 h fermentation samples, vs corresponding control
Method: Co-cultures of Caco-2 and HT29-MTX-E12 cells were used to assess the protective effect of the supernatants before (0 h) and after fermentation (48 h) for both sets of in vitro experiments above.
CaCo-2 ECACC 86010202 and HT29-MTX-E12 ECACC 12040401 cells (both from European Collection of Cell Cultures, Salisbury, UK) were both cultured at 37° C., in atmosphere of 5% CO2 in DMEM medium supplemented with 4.5 g/L D-Glucose, 4 mM L-Glutamine, 1 mM Sodium Pyruvate, 1% MEM Non-Essential Amino Acids, 50 μg/mL Gentamicin (Life Technologies Europe B.V., Zug, Switzerland) and 10% heat-inactivated FBS (Sigma-Aldrich, Buchs, Switzerland). Sub-confluent cells were trypsinized using 0.25% Trypsin/EDTA (Life Technologies Europe B.V., Zug, Switzerland) and passaged at a ratio of 1:5-1:10 twice a week. Cells between passages 55 and 85 were used for this study.
Cells were seeded at a density of 20000 cells/well in a 7:3 ratio (Caco-2:HT29-MTX-E12) in Corning HTS Transwell-24 system PET membranes, 0.4 μM pore size, cell growth area 0.33 cm2/well (Corning BV, Amsterdam, Netherlands) and cultured as described above. Media was changed every second to third day.
For both sets of in vitro experiments, after cells being 13 days in culture, initial transepithelial electrical resistance (TEER) readings were obtained using an EVOM2 Voltohmmeter (EVOM, World Precision Instruments, Berlin) equipped with STX100 Electrodes. TEER values correlate with the tightness of the confluent monolayer (Srinivasan et al. 2015).
The background TEER (insert) was subtracted from total TEER (cell monolayer plus insert) to yield the monolayer resistance and then normalized to surface area by multiplying with the area of the insert (Srinivasan et al. 2015). The integrity of the monolayer was determined at basal level by measuring TEER. A TEER of 300 Ωcm2 was regarded as a tight monolayer (see results section). Afterwards, the cells were treated with sterile filtered fermentation supernatants or fermentation medium as a control (diluted 1:20 in growth media). After 24 h incubation the resistance across each cell monolayer was measured again and the percentage change in TEER compared to initial TEER for each insert was calculated to represent a healthy gut model. All TEER measurements were done by placing the plates containing the inserts on a 37° C. warming plate and were performed in the same duration.

[6] = test system: fecal microbial community; assay: Microbiome composition by shotgun sequencing: alpha diversity (first set); format: cell-based, human; settings: after 24 h fermentation, vs corresponding control

| Compound | ileal species richness (observed OTUs) [1] | litter microbiome bacterial composition and species richness/diversity [2] | substrate digestibility incubated in (P+Pancreatin) and/or (P+P+Viscozyme) [3] | substrate digestibility incubated in pepsin-HCl [3] | CH4 production as volume per unit of incubation substrate ([4]; 6 and 12 h incubation, ranking, no significant differences) | concentration of total VFA, molar proportions of VFA, ammonia concentration ([4]; among treatments) | CH4 proportion of total gas ([4]; up to 12 h incubation, numerical, no significant differences (P>0.05)) | volume of gas ([4]; vs control, 4, 10 and 12 h incubation, P<0.05) | TEER, healthy gut cellular model ([5]; 1× dose) | TEER, healthy gut cellular model ([5]; 5× dose) | microbiome alpha diversity (Shannon diversity index) ([6]; 0.2× dose) | microbiome alpha diversity (Shannon diversity index) ([6]; 1× dose) | microbiome alpha diversity (Shannon diversity index) ([6]; 5× dose) |
| --- | --- | --- | --- | --- | --- | --- | --- | --- | --- | --- | --- | --- | --- |
| Cc1cc2nc3c(=O)[nH]c(=O)nc-3n(C[C@H](O)[C@H](O)[C@H](O)CO)c2cc1C [Vitamin B2, riboflavin] | increase in terms of species richness | no significant differences | no differences among treatments were observed | higher than that of other treatments | lowest accumulate CH4 | No differences were recorded | the lowest | higher |  |  |  |  |  |
| Vitamin E |  |  |  |  |  |  |  |  | increase TEER | increase TEER | increase microbiome diversity | increase microbiome diversity | increase microbiome diversity |
